Among the test systems are CCRF-CEM leukemia; HCC-2998 colon; HCT-15 colon; HS 578T breast; M14 melanoma; MCF7 breast; NCI-H226 lung; PC-3 prostate; RPMI-8226 leukemia; UACC-62 melanoma.
Test in all cases: growth of human tumour cells (NCI), 48 h

Molecules are shown by their SMILES.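 Growth conditions: 96-well plates. Treatment: test compound, 48 hours, 5 concentrations. Analysis: linear interpolation between bracketing concentrations; unreached endpoints set to highest concentration. The concentration for full growth arrest is given as TGI.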

Take `COc1cc(/C=C2\CC3C4CC=C5C[C@@H](O)CC[C@]5(C)C4CC[C@]3(C)\C2=N\O)cc(OC)c1OC` (stereo not given in full): the TGI was over 100 µM in the assay on CCRF-CEM leukemia; 45 µM in the assay on HCC-2998 colon; 38.5 µM in the assay on HCT-15 colon; over 100 µM in the assay on HS 578T breast; 27.6 µM in the assay on M14 melanoma; 15 µM in the assay on MCF7 breast. For the same molecule, the TGI was 60.9 µM in the assay with NCI-H226 lung, 37.8 µM in the assay with PC-3 prostate, 40 µM with RPMI-8226 leukemia and 24 µM in the assay with UACC-62 melanoma.

Consider `O=c1[nH]nc(-c2ccc3ccccc3c2)[nH]1`, for which the TGI in the assay with CCRF-CEM leukemia is over 100 µM; in the assay on HCC-2998 colon it was over 100 µM; in the assay with HCT-15 colon, over 100 µM; with HS 578T breast it was 24.2 µM; in the assay with M14 melanoma, over 100 µM; in the assay with MCF7 breast it was over 100 µM. Further, the TGI in the assay with NCI-H226 lung, in the assay with PC-3 prostate, in the assay with RPMI-8226 leukemia and with UACC-62 melanoma was over 100 µM throughout.

For the molecule `Cc1ccc2[nH]c3c(c2c1)C1CCC(C(C)(C)C)CC1C1C(=O)N(c2ccc(Oc4ccccc4)cc2)C(=O)C31` (stereo not given), the TGI is 8.26 µM in the assay with CCRF-CEM leukemia; over 100 µM in the assay on HCC-2998 colon; over 100 µM in the assay with HCT-15 colon; 8.28 µM in the assay with HS 578T breast; over 100 µM in the assay with M14 melanoma; over 100 µM in the assay with MCF7 breast. Further, the TGI was over 86.9 µM with NCI-H226 lung, over 100 µM in the assay with PC-3 prostate, 40.5 µM with RPMI-8226 leukemia and over 100 µM in the assay with UACC-62 melanoma.

For the molecule `CCOC(=O)Cn1nnc2ccc(Nc3nc4ccccc4nc3C(=O)OCC)cc21`, the TGI in the assay on CCRF-CEM leukemia, in the assay on HCC-2998 colon, with HCT-15 colon, in the assay on HS 578T breast, in the assay with M14 melanoma and in the assay with MCF7 breast was over 100 µM each time. In addition, the TGI in the assay on NCI-H226 lung, in the assay on PC-3 prostate, in the assay on RPMI-8226 leukemia and in the assay on UACC-62 melanoma was over 100 µM throughout.

`CC(=O)Oc1ccc2c(c1)O/C(=C\c1ccc(N(C)C)cc1)C2=O`: the TGI in the assay with CCRF-CEM leukemia was over 100 µM; in the assay with HCC-2998 colon, over 100 µM; with HCT-15 colon it was over 100 µM; with HS 578T breast, 60.8 µM; with M14 melanoma it was over 100 µM; with MCF7 breast it was over 100 µM. The TGI in the assay on NCI-H226 lung, in the assay with PC-3 prostate, in the assay with RPMI-8226 leukemia and in the assay with UACC-62 melanoma was over 100 µM each time.

As to `O=C1O/C(=C(\Br)c2ccc([N+](=O)[O-])cc2)c2ccccc21`, the TGI is 62.7 µM with CCRF-CEM leukemia; over 100 µM with HCC-2998 colon; over 81.5 µM with HCT-15 colon; over 100 µM with HS 578T breast; over 100 µM in the assay with M14 melanoma; over 100 µM in the assay on MCF7 breast. Moreover, the TGI with NCI-H226 lung is over 100 µM; in the assay with PC-3 prostate, over 100 µM; with RPMI-8226 leukemia, over 61.8 µM; in the assay on UACC-62 melanoma, over 100 µM.

As for `c1ccc(CCCN2C3CCC2CN(CCOC(c2ccccc2)c2ccccc2)C3)cc1`, the TGI with CCRF-CEM leukemia came to 39.2 µM; with HCC-2998 colon it was 18 µM; in the assay on HCT-15 colon, 18.1 µM; with HS 578T breast, 33.7 µM; in the assay with M14 melanoma, 17.3 µM; with MCF7 breast it was 25.8 µM. Also, the TGI with NCI-H226 lung amounted to 25.9 µM; in the assay on PC-3 prostate, 19.4 µM; in the assay on RPMI-8226 leukemia it was 7.83 µM; with UACC-62 melanoma it was 25.5 µM.

On to `CC1=NN(c2ccccc2)C(=O)/C1=C1\SC(c2ccccc2)(c2ccccc2)c2ccccc21`, for which the TGI with CCRF-CEM leukemia, in the assay with HCC-2998 colon, in the assay on HCT-15 colon, in the assay on HS 578T breast, in the assay with M14 melanoma and with MCF7 breast was over 100 µM throughout. The TGI in the assay on NCI-H226 lung, in the assay with PC-3 prostate, in the assay with RPMI-8226 leukemia and in the assay on UACC-62 melanoma was over 100 µM each time.

`O=[N+]([O-])C(/C(Cl)=C(/Cl)N1CCOCC1)=C1\Nc2ccccc2O1`: the TGI in the assay on CCRF-CEM leukemia, in the assay on HCC-2998 colon, with HCT-15 colon, with HS 578T breast, in the assay with M14 melanoma and with MCF7 breast was over 100 µM in each case. In addition, the TGI in the assay on NCI-H226 lung, in the assay with PC-3 prostate, in the assay on RPMI-8226 leukemia and with UACC-62 melanoma was over 100 µM in each case.

In the case of `CCO/C(O)=c1/s/c(=C2/SC(=S)N(c3ccc(C)cc3)C2=O)n(-c2ccccc2)c1=N`, the TGI in the assay on CCRF-CEM leukemia was over 100 µM; with HCC-2998 colon it was over 100 µM; in the assay on HCT-15 colon it was over 100 µM; in the assay with HS 578T breast, 66.8 µM; with M14 melanoma it was over 100 µM; in the assay on MCF7 breast, over 100 µM. Moreover, the TGI in the assay on NCI-H226 lung was over 76.9 µM; in the assay with PC-3 prostate it was over 100 µM; in the assay on RPMI-8226 leukemia it was over 100 µM; in the assay on UACC-62 melanoma, over 100 µM.

`CN(C)c1ccc(-c2c(C#N)c(-c3ccccc3)n(NS(=O)(=O)c3ccccc3)c(=O)c2C#N)cc1`: the TGI is 83.5 µM with CCRF-CEM leukemia; over 100 µM in the assay with HCC-2998 colon; over 100 µM in the assay on HCT-15 colon; over 100 µM in the assay with HS 578T breast; over 100 µM with M14 melanoma; over 100 µM with MCF7 breast. Further, the TGI is over 100 µM in the assay with NCI-H226 lung, over 100 µM in the assay with PC-3 prostate, 48.6 µM with RPMI-8226 leukemia and over 100 µM in the assay with UACC-62 melanoma.

For the molecule `COc1ccc(Nc2nc3ccccc3nc2-c2cccs2)cc1OC`, the TGI in the assay with CCRF-CEM leukemia, in the assay on HCC-2998 colon, in the assay on HCT-15 colon, in the assay with HS 578T breast, with M14 melanoma and in the assay with MCF7 breast was over 10 µM in each case. Also, the TGI in the assay on NCI-H226 lung, in the assay on PC-3 prostate, with RPMI-8226 leukemia and with UACC-62 melanoma was over 10 µM throughout.

`COc1cc(O)c2c(=O)c3cccc(C)c3[nH]c2c1`: the TGI in the assay on CCRF-CEM leukemia, with HCC-2998 colon, with HCT-15 colon, with HS 578T breast, in the assay with M14 melanoma and in the assay on MCF7 breast was over 10 µM in each case. Besides, the TGI in the assay on NCI-H226 lung, with PC-3 prostate, in the assay with RPMI-8226 leukemia and with UACC-62 melanoma was over 10 µM in each case.

For the molecule `CC1=C[C@H](C[C@]2(C)c3c(c4c(C)cccc4oc3=O)O[C@@H]2C)OC1=O`, the TGI with CCRF-CEM leukemia is 74.7 µM; with HCC-2998 colon, over 100 µM; in the assay with HCT-15 colon it was over 100 µM; in the assay with HS 578T breast, over 100 µM; in the assay on M14 melanoma, over 100 µM; with MCF7 breast it was over 100 µM. Also, the TGI in the assay on NCI-H226 lung was over 100 µM; with PC-3 prostate, over 100 µM; in the assay on RPMI-8226 leukemia, 18.1 µM; in the assay on UACC-62 melanoma, over 100 µM.

As to `Cc1ccc(N=NC(=Nc2ccc(F)cc2)c2ccc(N(CCC#N)CCC#N)cc2)cc1`, the TGI in the assay on CCRF-CEM leukemia, with HCC-2998 colon, in the assay with HCT-15 colon, in the assay on HS 578T breast, in the assay with M14 melanoma and with MCF7 breast was over 100 µM throughout. For the same molecule, the TGI in the assay with NCI-H226 lung, with PC-3 prostate, in the assay with RPMI-8226 leukemia and in the assay on UACC-62 melanoma was over 100 µM each time.

`COC(=O)/C(=C(/C)c1ccco1)P(=O)(OC)OC`: the TGI in the assay on CCRF-CEM leukemia, with HCC-2998 colon, with HCT-15 colon, in the assay on HS 578T breast, in the assay on M14 melanoma and in the assay on MCF7 breast was over 100 µM in each case. For the same molecule, the TGI in the assay with NCI-H226 lung, in the assay on PC-3 prostate, with RPMI-8226 leukemia and in the assay on UACC-62 melanoma was over 100 µM each time.

`OC1CCN2Cc3ccccc3N=C12` (stereo not given): the TGI in the assay on CCRF-CEM leukemia, with HCC-2998 colon, with HCT-15 colon, in the assay with HS 578T breast, with M14 melanoma and in the assay with MCF7 breast was over 100 µM in each case. For the same molecule, the TGI in the assay on NCI-H226 lung, in the assay on PC-3 prostate, in the assay on RPMI-8226 leukemia and with UACC-62 melanoma was over 100 µM in each case.

Turning to `c1ccc(C/C(=N\Nc2nc3ccccc3[nH]2)c2ccccn2)cc1`, the TGI with CCRF-CEM leukemia stood at 0.375 µM; in the assay on HCC-2998 colon it was 30.9 µM; with HCT-15 colon, 15.6 µM; with HS 578T breast it was 20 µM; in the assay on M14 melanoma, 0.915 µM; in the assay with MCF7 breast it was 0.607 µM. Further, the TGI in the assay on NCI-H226 lung came to 0.295 µM; with PC-3 prostate it was 0.503 µM; in the assay with RPMI-8226 leukemia it was 0.131 µM; with UACC-62 melanoma, 2.79 µM.

In the case of `Cc1cc(C)c2c(-c3ccccc3)cc(=O)[nH]c2c1`, the TGI in the assay on CCRF-CEM leukemia, in the assay with HCC-2998 colon, in the assay on HCT-15 colon, in the assay with HS 578T breast, with M14 melanoma and with MCF7 breast was over 100 µM throughout. Further, the TGI with NCI-H226 lung, with PC-3 prostate, in the assay on RPMI-8226 leukemia and in the assay on UACC-62 melanoma was over 100 µM in each case.

For the molecule `CN(C)CC1CCC/C(=C\c2ccc(Cl)c(Cl)c2)C1=O` (stereo not given), the TGI in the assay on CCRF-CEM leukemia came out at 2.68 µM; with HCC-2998 colon, 25.5 µM; with HCT-15 colon it was 6.33 µM; in the assay on HS 578T breast, 9.51 µM; with M14 melanoma, 11.2 µM; with MCF7 breast, 5.44 µM. The TGI is 24.5 µM with NCI-H226 lung, over 33.5 µM with PC-3 prostate, 1.03 µM in the assay with RPMI-8226 leukemia and 12.8 µM with UACC-62 melanoma.

As to `Cc1cccc(-c2cc(=O)c3cccnc3[nH]2)c1`, the TGI was over 100 µM in the assay on CCRF-CEM leukemia; 13.2 µM in the assay on HCC-2998 colon; over 100 µM with HCT-15 colon; over 100 µM in the assay with HS 578T breast; over 100 µM with M14 melanoma; over 100 µM in the assay with MCF7 breast. The TGI in the assay with NCI-H226 lung, in the assay on PC-3 prostate, with RPMI-8226 leukemia and with UACC-62 melanoma was over 100 µM each time.

The values are drawn from PubChem BioAssay (NCI).
